Measurements taken from patent publication US7115724B2, “Murine genomic polynucleotide sequence encoding a G-protein coupled receptor and methods of use therefor” (priority 2001, dated 2006).
Where two headings read alike, the source gives them in different places.

Tests used:
human P2Y12 receptor [1] = target: T1, human P2Y12 receptor (Homo sapiens, UniProt Q9H244); conditions: Zhang et al., 2001, cited from earlier work; for rank order of potency, human P2T (P2Y12) receptor in adenylyl cyclase inhibition assays: reported values
T1 sequence (Q9H244 whole entry): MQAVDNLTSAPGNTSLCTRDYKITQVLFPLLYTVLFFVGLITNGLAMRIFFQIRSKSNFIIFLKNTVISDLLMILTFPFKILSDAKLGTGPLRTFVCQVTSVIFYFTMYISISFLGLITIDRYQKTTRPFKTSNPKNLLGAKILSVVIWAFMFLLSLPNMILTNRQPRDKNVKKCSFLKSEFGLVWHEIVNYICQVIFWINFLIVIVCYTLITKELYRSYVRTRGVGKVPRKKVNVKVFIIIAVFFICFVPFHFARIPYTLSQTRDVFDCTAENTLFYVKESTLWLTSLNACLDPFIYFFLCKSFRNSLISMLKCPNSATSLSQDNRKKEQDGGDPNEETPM

mouse P2T receptor = target: T2, mouse P2T receptor (Mus musculus, UniProt Q9CPV9); test: Yeast cell-based assay of mouse P2T receptor agonist activation (β-galactosidase reporter); conditions: for rank order of potency of agonist stimulation of the mouse P2T receptor: yeast assay (FIG. 2)
T2 construct: Oligonucleotides corresponding to the 5′ and 3′ ends of the predicted protein coding region were used to amplify a fragment; expressed in transfected cells; host or cells: Saccharomyces cerevisiae MPY578 variant expressing a Gpa1-Gαt chimera, with pMP344 (p426GPD backbone) and the FUS1-LacZ reporter pMP283
T2 sequence (Q9CPV9 whole entry, the tested form may be a part): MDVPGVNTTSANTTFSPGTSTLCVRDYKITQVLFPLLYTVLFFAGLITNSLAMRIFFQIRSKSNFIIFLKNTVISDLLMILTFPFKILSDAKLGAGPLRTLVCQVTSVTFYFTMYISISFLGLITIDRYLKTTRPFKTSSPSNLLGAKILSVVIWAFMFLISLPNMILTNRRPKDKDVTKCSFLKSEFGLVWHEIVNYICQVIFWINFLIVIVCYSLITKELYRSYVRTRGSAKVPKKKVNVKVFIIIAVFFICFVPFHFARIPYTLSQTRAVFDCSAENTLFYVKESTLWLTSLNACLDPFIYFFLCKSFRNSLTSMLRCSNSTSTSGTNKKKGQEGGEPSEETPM
Text: In order to facilitate coupling of the P2T receptor to G protein, MPY578 variant cells express chimeric G alpha proteins coupled to the mating signal transduction pathway. The chimeric constructs are expressed from the GPA1 locus and are composed of Gpa1 sequences in which the 5 C-terminal amino acids have been replaced with those of all the mammalian Gα proteins. A multicopy FUS1-LacZ reporter gene plasmid, pMP283, was introduced into P2T receptor-containing cells and selected on media lacking trp and ura. The resulting yeast strains were used for further analysis.
MPY578 cells that express Gpa1-Gαt chimeric G alpha protein and containing pMP344 and pMP283 were diluted in assay medium (SCD-ura-trp, pH 6.8, 25 mM PIPES, 1 mM 3-aminotriazole) dispensed (5×10^6/ml, 200 μl/well) to the wells of 96-well microtiter dishes containing purinergic ligands. The plates were incubated with shaking (600 rpm) at 30° C. for 3 hours. Samples (25 μl) were transferred to Wallac B & W isoplates for β-galactosidase assay. An equal volume of GAL-SCREEN lysis and chemiluminescent β-galactosidase assay mixture was added. The plates were incubated for 30 min at 30° C. and light emission measured using a Wallac Victor II. Assays were conducted in quadruplicate and results were plotted using GraphPad Prizm.

human P2Y12 receptor [2] = target: T1, human P2Y12 receptor; parameters: host or cells: NIH3T3 cells with a chimeric Gq/i3 construct (FLIPR); conditions: cited from earlier work; for rank order of potency, human P2T (P2Y12) receptor measured in FLIPR: reported values, Zhang et al., 2001
mouse P2Y12 = target: T3, mouse P2Y12 (Mus musculus, UniProt Q9CPV9); test: Agonist-induced release of intracellular calcium (FLIPR) in NIH3T3 cells expressing mouse P2Y12 and chimeric Gαq/i3; format: cell-based; conditions: for rank order of potency of agonist stimulation of the mouse P2Y12 receptor in FLIPR: NIH3T3 Gαq/i3 cells (FIG. 4)
T3 construct: expressed in transfected cells; host or cells: NIH3T3 cells stably transfected with pCDNA-Gαq/i3 and pCDNA3.1-mP2Y12
T3 sequence (Q9CPV9 whole entry): as the sequence (Q9CPV9 whole entry, the tested form may be a part) above
Method: Mammalian cell expression and measurement of intracellular calcium. NIH3T3 cells were stably transfected with pCDNA-Gαq/i3 by electroporation and cultured in the presence of 800 μg/ml neomycin. The NIH3T3 Gαq/i3 line was subsequently stably transfected with pCDNA3.1-mP2Y12 by electroporation and cultured in the presence of 800 μg/ml neomycin and 400 μg/ml hygromycin. Cells were plated without selection and grown overnight at 37° C. The cells were washed with Hank's balanced salt solution without phenol red plus 20 mM HEPES, 2.5 mM probenecid, pH 7.4 and loaded with wash solution plus 5 μM Fluo-4, 0.04% pluronic acid and 1% fetal bovine serum for 1 hour at 37° C. After removing the dye solution and washed with wash buffer, agonists were added and analyzed using the FLIPR (PE Biosystems) to measure accumulation of intracellular calcium in response to compound treatments.
In published reports, Xenopus oocytes injected with the human P2Y12 receptor cRNA and coupled to stimulation of coinjected Kir3.1/Kir3.2 inwardly rectifying K+ currents, the EC50 was 300 nM (Hollopeter, 2001). […] The rank orders of potency of agonist stimulation of the mouse P2Y12 receptor in FLIPR (2MeSADP>ADP=ADPβS>ATPγS) agree well with reported values for the human P2Y12 receptor measured in FLIPR (2MeSADP=2MeSATP>ADP=ADPβS>2CIATP>ATPγS) and in adenylyl cyclase inhibition assays (2MeSATP>2MeSADP>ADP>ATPγS>ADPβS>2CIATP) (Zhang, 2001).

human P2Y12 receptor [3] = target: T1, human P2Y12 receptor; conditions: Xenopus oocytes injected with P2T (human P2Y12) receptor cRNA; Hollopeter et al., 2001; read-out: EC50, stimulation of Kir3.1/Kir3.2 inwardly rectifying K+ currents; cited from earlier work

SMILES | rank order of potency of agonist stimulation of the mouse P2T receptor (mouse P2T receptor) | rank order of potency of agonist stimulation of the mouse P2Y12 receptor in FLIPR (mouse P2Y12) [MeSADP>ADP=ADPβS>ATPγS] | EC50 (mouse P2T receptor; MPY578 yeast cells, β-galactosidase reporter, read-out: EC50 for ADP stimulation of the mouse P2T assayed in yeast) [nM] | EC50 (mouse P2Y12; FLIPR, NIH3T3 Gαq/i3 cells, read-out: EC50 for ADP stimulation of the mouse P2Y12 dependent release of intracellular calcium) [nM] | rank order of potency, human P2T (P2Y12) receptor in adenylyl cyclase inhibition assays (human P2Y12 receptor [1]) | rank order of potency, human P2T (P2Y12) receptor measured in FLIPR (human P2Y12 receptor [2]) | EC50 (human P2Y12 receptor [1]; read-out: EC50, ADP dependent inhibition of cAMP accumulation) [nM] | EC50 (human P2Y12 receptor [2]; NIH3T3 cells, receptor with chimeric Gq construct, literature value, read-out: EC50 measured by FLIPR) [nM] | EC50 (human P2Y12 receptor [3]) [nM]
Nc1nc(Cl)nc2c1ncn2[C@@H]1O[C@H](COP(=O)(O)OP(=O)(O)OP(=O)(O)O)[C@@H](O)[C@H]1O [2CIATP] | 2MeSADP>2MeSATP>ADP=ADPβS>ATPγS>2CIATP |  |  |  | 2MeSATP>2MeSADP>ADP>ATPγS>ADPβS>2CIATP | 2MeSADP=2MeSATP>ADP =ADPβS>2CIATP>ATPγS |  |  | 
CSc1nc(N)c2ncn([C@@H]3O[C@H](COP(=O)(O)OP(=O)(O)O)[C@@H](O)[C@H]3O)c2n1 [2MeSADP] | 2MeSADP>2MeSATP>ADP=ADPβS>ATPγS>2CIATP | 2 |  |  | 2MeSATP>2MeSADP>ADP>ATPγS>ADPβS>2CIATP | 2MeSADP=2MeSATP>ADP =ADPβS>2CIATP>ATPγS |  |  | 
Nc1ncnc2c1ncn2[C@@H]1O[C@H](COP(=O)(O)OP(O)(O)=S)[C@@H](O)[C@H]1O [ADPβS] | 2MeSADP>2MeSATP>ADP=ADPβS>ATPγS>2CIATP | 2 |  |  | 2MeSATP>2MeSADP>ADP>ATPγS>ADPβS>2CIATP | 2MeSADP=2MeSATP>ADP =ADPβS>2CIATP>ATPγS |  |  | 

Now from value to molecule, other results behind:

rank order of potency of agonist stimulation of the mouse P2T receptor (mouse P2T receptor) | rank order of potency of agonist stimulation of the mouse P2Y12 receptor in FLIPR (mouse P2Y12) [MeSADP>ADP=ADPβS>ATPγS] | EC50 (mouse P2T receptor; MPY578 yeast cells, β-galactosidase reporter, read-out: EC50 for ADP stimulation of the mouse P2T assayed in yeast) [nM] | EC50 (mouse P2Y12; FLIPR, NIH3T3 Gαq/i3 cells, read-out: EC50 for ADP stimulation of the mouse P2Y12 dependent release of intracellular calcium) [nM] | SMILES | rank order of potency, human P2T (P2Y12) receptor in adenylyl cyclase inhibition assays (human P2Y12 receptor [1]) | rank order of potency, human P2T (P2Y12) receptor measured in FLIPR (human P2Y12 receptor [2]) | EC50 (human P2Y12 receptor [1]; read-out: EC50, ADP dependent inhibition of cAMP accumulation) [nM] | EC50 (human P2Y12 receptor [2]; NIH3T3 cells, receptor with chimeric Gq construct, literature value, read-out: EC50 measured by FLIPR) [nM] | EC50 (human P2Y12 receptor [3]) [nM]
2MeSADP>2MeSATP>ADP=ADPβS>ATPγS>2CIATP |  |  |  | CSc1nc(N)c2ncn([C@@H]3O[C@H](COP(=O)(O)OP(=O)(O)OP(=O)(O)O)[C@@H](O)[C@H]3O)c2n1 [2MeSATP] | 2MeSATP>2MeSADP>ADP>ATPγS>ADPβS>2CIATP | 2MeSADP=2MeSATP>ADP =ADPβS>2CIATP>ATPγS |  |  | 
2MeSADP>2MeSATP>ADP=ADPβS>ATPγS>2CIATP | 2 | 256 | 27 | Nc1ncnc2c1ncn2[C@@H]1O[C@H](COP(=O)(O)OP(=O)(O)O)[C@@H](O)[C@H]1O [ADP] | 2MeSATP>2MeSADP>ADP>ATPγS>ADPβS>2CIATP | 2MeSADP=2MeSATP>ADP =ADPβS>2CIATP>ATPγS | 61 | 74 | 300
2MeSADP>2MeSATP>ADP=ADPβS>ATPγS>2CIATP | 2 |  |  | Nc1ncnc2c1ncn2[C@@H]1O[C@H](COP(=O)(O)OP(=O)(O)OP(O)(O)=S)[C@@H](O)[C@H]1O [ATPγS] | 2MeSATP>2MeSADP>ADP>ATPγS>ADPβS>2CIATP | 2MeSADP=2MeSATP>ADP =ADPβS>2CIATP>ATPγS |  |  | 
